Measured values from patent US20110045593A1, “Transgenically mitigating the establishment and spread of transgenic algae in natural ecosystems by suppressing the activity of carbonic anhydrase” (priority 2009, published 2011).

What was measured:
[1] = system: non-transgenic algal or cyanobacterial cells; assay: In vivo pds assay: culture in fluorochloridone solution; format: cell-based; details: 0.1 μM in standard algae or cyanobacteria culture media
Method: In vivo pds assay. Putative transformed algal or cyanobacterial cells were cultured in a solution of 0.1 μM fluorochloridone in standard algae or cyanobacteria culture media.

[2] = system: Nannochloropsis oculata CS-179; assay: Photosynthetic carbon dioxide fixation measured as oxygen evolution with an oxygen electrode, carbonic anhydrase suppressed by inhibitor; format: cell-based; details: 300 μM, incubated just prior to measurement
Method: Cultures were incubated with ethoxyzolamide just prior to measurement.
Measurements of O2 concentrations are performed using a Clark type O2 electrode (Pasco Scientific, Roseville, Calif., USA). 20 ml of cell suspension corresponding to 15 μg chlorophyll/ml are placed in the O2 electrode chamber, at relevant temperature. Cells are exposed to various light intensities and net O2 production is measured. Dark incubations are performed in air-tight vessels to follow light-independent O2 consumption.

| SMILES | killing of non-transgenic cells [1] | photosynthetic carbon dioxide fixation (measured as oxygen evolution) ([2]; high CO2 concentration (FIG. 1A; more than 2%)) | photosynthetic carbon dioxide fixation (measured as oxygen evolution) ([2]; high CO2 concentration (FIG. 1A; more than 2%), listed as inhibitor) | photosynthetic carbon dioxide fixation (measured as oxygen evolution) ([2]; low CO2 concentration (FIG. 1B)) | photosynthetic carbon dioxide fixation (measured as oxygen evolution) ([2]; low CO2 concentration (FIG. 1B), listed as inhibitor) |
| --- | --- | --- | --- | --- | --- |
| O=C1C(Cl)C(CCl)CN1c1cccc(C(F)(F)F)c1 (centres unmarked) [fluorochloridone] | all non-transgenic cells are killed |  |  |  |  |
| CCOc1ccc2nc(S(N)(=O)=O)sc2c1 [ethoxyzolamide, 6-ethoxy-2-benzothiazolesulfonamide] |  | no effect | no difference in photosynthesis | decreases photosynthetic carbon dioxide fixation | severely deficient in photosynthesis |
